Results as given in ChEMBL document CHEMBL1154382, “Preliminary SAR analysis of novel antiproliferative N(6),5'-bis-ureidoadenosine derivatives” (2009).

Tests used:
Assay type in all cases: functional
Details in all cases: values are per cent of control
[1] = system: CCRF-CEM; assay: Antiproliferative activity against human CCRF-CEM cells at 10 uM assessed as cell growth inhibition relative to control
[2] = system: HL-60(TB); assay: Antiproliferative activity against human HL-60(TB) cells at 10 uM assessed as cell growth inhibition relative to control
[3] = system: K562; assay: Antiproliferative activity against human K562 cells at 10 uM assessed as cell growth inhibition relative to control
[4] = system: MOLT-4; assay: Antiproliferative activity against human MOLT4 cells at 10 uM assessed as cell growth inhibition relative to control
[5] = Antiproliferative activity against human […] cells at 10 uM assessed as cell growth inhibition relative to control
[6] = system: A549; assay: Antiproliferative activity against human A549 cells at 10 uM assessed as cell growth inhibition relative to control
[7] = system: EKVX; assay: Antiproliferative activity against human EKVX cells at 10 uM assessed as cell growth inhibition relative to control
[8] = system: PC-3; assay: Antiproliferative activity against human PC3 cells at 10 uM assessed as cell growth inhibition relative to control
[9] = system: HOP-62; assay: Antiproliferative activity against human HOP62 cells at 10 uM assessed as cell growth inhibition relative to control
[10] = system: HOP-92; assay: Antiproliferative activity against human HOP92 cells at 10 uM assessed as cell growth inhibition relative to control
[11] = system: NCI-H226; assay: Antiproliferative activity against human NCI-H226 cells at 10 uM assessed as cell growth inhibition relative to control
[12] = system: NCI-H23; assay: Antiproliferative activity against human NCI-H23 cells at 10 uM assessed as cell growth inhibition relative to control
[13] = system: NCI-H322M; assay: Antiproliferative activity against human NCI-H322M cells at 10 uM assessed as cell growth inhibition relative to control
[14] = system: NCI-H460; assay: Antiproliferative activity against human NCI-H460 cells at 10 uM assessed as cell growth inhibition relative to control
[15] = system: NCI-H522; assay: Antiproliferative activity against human NCI-H522 cells at 10 uM assessed as cell growth inhibition relative to control
[16] = system: COLO 205; assay: Antiproliferative activity against human COLO205 cells at 10 uM assessed as cell growth inhibition relative to control
[17] = system: HCC 2998; assay: Antiproliferative activity against human HCC2998 cells at 10 uM assessed as cell growth inhibition relative to control
[18] = system: HCT-116; assay: Antiproliferative activity against human HCT116 cells at 10 uM assessed as cell growth inhibition relative to control
[19] = system: HCT-15; assay: Antiproliferative activity against human HCT15 cells at 10 uM assessed as cell growth inhibition relative to control
[20] = system: HT-29; assay: Antiproliferative activity against human HT-29 cells at 10 uM assessed as cell growth inhibition relative to control
[21] = system: KM12; assay: Antiproliferative activity against human KM12 cells at 10 uM assessed as cell growth inhibition relative to control
[22] = system: SW-620; assay: Antiproliferative activity against human SW620 cells at 10 uM assessed as cell growth inhibition relative to control
[23] = system: LOX IMVI; assay: Antiproliferative activity against human LOXIMVI cells at 10 uM assessed as cell growth inhibition relative to control
[24] = system: Malme-3M; assay: Antiproliferative activity against human MALME-3M cells at 10 uM assessed as cell growth inhibition relative to control
[25] = system: M14; assay: Antiproliferative activity against human M14 cells at 10 uM assessed as cell growth inhibition relative to control
[26] = system: SK-MEL-2; assay: Antiproliferative activity against human SK-MEL-2 cells at 10 uM assessed as cell growth inhibition relative to control
[27] = system: SK-MEL-28; assay: Antiproliferative activity against human SK-MEL-28 cells at 10 uM assessed as cell growth inhibition relative to control
[28] = system: SK-MEL-5; assay: Antiproliferative activity against human SK-MEL-5 cells at 10 uM assessed as cell growth inhibition relative to control
[29] = system: UACC-257; assay: Antiproliferative activity against human UACC257 cells at 10 uM assessed as cell growth inhibition relative to control
[30] = system: UACC-62; assay: Antiproliferative activity against human UACC62 cells at 10 uM assessed as cell growth inhibition relative to control
[31] = system: SF-268; assay: Antiproliferative activity against human SF268 cells at 10 uM assessed as cell growth inhibition relative to control
[32] = system: SF-295; assay: Antiproliferative activity against human SF295 cells at 10 uM assessed as cell growth inhibition relative to control
[33] = system: SF-539; assay: Antiproliferative activity against human SF539 cells at 10 uM assessed as cell growth inhibition relative to control
[34] = system: SNB-19; assay: Antiproliferative activity against human SNB19 cells at 10 uM assessed as cell growth inhibition relative to control
[35] = system: SNB-75; assay: Antiproliferative activity against human SNB75 cells at 10 uM assessed as cell growth inhibition relative to control
[36] = system: U-251; assay: Antiproliferative activity against human U251 cells at 10 uM assessed as cell growth inhibition relative to control
[37] = system: IGROV-1; assay: Antiproliferative activity against human IGROV1 cells at 10 uM assessed as cell growth inhibition relative to control
[38] = system: OVCAR-3; assay: Antiproliferative activity against human OVCAR-3 cells at 10 uM assessed as cell growth inhibition relative to control
[39] = system: OVCAR-4; assay: Antiproliferative activity against human OVCAR4 cells at 10 uM assessed as cell growth inhibition relative to control
[40] = system: OVCAR-5; assay: Antiproliferative activity against human OVCAR5 cells at 10 uM assessed as cell growth inhibition relative to control
[41] = system: OVCAR-8; assay: Antiproliferative activity against human OVCAR8 cells at 10 uM assessed as cell growth inhibition relative to control
[42] = system: SK-OV-3; assay: Antiproliferative activity against human SKOV3 cells at 10 uM assessed as cell growth inhibition relative to control
[43] = system: 786-0; assay: Antiproliferative activity against human 786-0 cells at 10 uM assessed as cell growth inhibition relative to control
[44] = system: A498; assay: Antiproliferative activity against human A498 cells at 10 uM assessed as cell growth inhibition relative to control
[45] = system: ACHN; assay: Antiproliferative activity against human ACHN cells at 10 uM assessed as cell growth inhibition relative to control
[46] = system: CAKI-1; assay: Antiproliferative activity against human Caki1 cells at 10 uM assessed as cell growth inhibition relative to control
[47] = system: RXF 393; assay: Antiproliferative activity against human RXF393 cells at 10 uM assessed as cell growth inhibition relative to control
[48] = system: SN12C; assay: Antiproliferative activity against human SN12C cells at 10 uM assessed as cell growth inhibition relative to control
[49] = system: TK-10; assay: Antiproliferative activity against human TK10 cells at 10 uM assessed as cell growth inhibition relative to control
[50] = system: UO-31; assay: Antiproliferative activity against human UO31 cells at 10 uM assessed as cell growth inhibition relative to control
[51] = system: BT-549; assay: Antiproliferative activity against human BT549 cells at 10 uM assessed as cell growth inhibition relative to control
[52] = Antiproliferative activity against human Hs 578T cells at 10 uM assessed as cell growth inhibition relative to control
[53] = system: MCF7; assay: Antiproliferative activity against human MCF7 cells at 10 uM assessed as cell growth inhibition relative to control
[54] = system: MDA-MB-231; assay: Antiproliferative activity against human MDA-MB-231 cells at 10 uM assessed as cell growth inhibition relative to control
[55] = system: MDA-MB-468; assay: Antiproliferative activity against human MDA-MB-468 cells at 10 uM assessed as cell growth inhibition relative to control
[56] = system: T47D; assay: Antiproliferative activity against human T47D cells at 10 uM assessed as cell growth inhibition relative to control
[57] = system: DU-145; assay: Antiproliferative activity against human DU145 cells at 10 uM assessed as cell growth inhibition relative to control

Structure (SMILES): CCOC(=O)C[C@H]1[C@@H](O[Si](C)(C)C(C)(C)C)[C@H](n2cnc3c(N)ncnc32)O[C@@H]1CO
- growth, % of control at 10 µM [1]: 83%
- growth, % of control at 10 µM [2]: 89%
- growth, % of control at 10 µM [3]: 84%
- growth, % of control at 10 µM [4]: 74%
- growth, % of control at 10 µM [5]: 99%
- growth, % of control at 10 µM [6]: 100%
- growth, % of control at 10 µM [7]: 75%
- growth, % of control at 10 µM [8]: 85%
- growth, % of control at 10 µM [9]: 91%
- growth, % of control at 10 µM [10]: 81%
- growth, % of control at 10 µM [11]: 90%
- growth, % of control at 10 µM [12]: 107%
- growth, % of control at 10 µM [13]: 91%
- growth, % of control at 10 µM [14]: 101%
- growth, % of control at 10 µM [15]: 92%
- growth, % of control at 10 µM [16]: 109%
- growth, % of control at 10 µM [17]: 104%
- growth, % of control at 10 µM [18]: 94%
- growth, % of control at 10 µM [19]: 91%
- growth, % of control at 10 µM [20]: 98%
- growth, % of control at 10 µM [21]: 109%
- growth, % of control at 10 µM [22]: 103%
- growth, % of control at 10 µM [23]: 92%
- growth, % of control at 10 µM [24]: 93%
- growth, % of control at 10 µM [25]: 99%
- growth, % of control at 10 µM [26]: 106%
- growth, % of control at 10 µM [27]: 112%
- growth, % of control at 10 µM [28]: 81%
- growth, % of control at 10 µM [29]: 105%
- growth, % of control at 10 µM [30]: 73%
- growth, % of control at 10 µM [31]: 98%
- growth, % of control at 10 µM [32]: 97%
- growth, % of control at 10 µM [33]: 91%
- growth, % of control at 10 µM [34]: 103%
- growth, % of control at 10 µM [35]: 75%
- growth, % of control at 10 µM [36]: 99%
- growth, % of control at 10 µM [37]: 90%
- growth, % of control at 10 µM [38]: 98%
- growth, % of control at 10 µM [39]: 97%
- growth, % of control at 10 µM [40]: 101%
- growth, % of control at 10 µM [41]: 103%
- growth, % of control at 10 µM [42]: 103%
- growth, % of control at 10 µM [43]: 97%
- growth, % of control at 10 µM [44]: 98%
- growth, % of control at 10 µM [45]: 102%
- growth, % of control at 10 µM [46]: 92%
- growth, % of control at 10 µM [47]: 112%
- growth, % of control at 10 µM [48]: 85%
- growth, % of control at 10 µM [49]: 94%
- growth, % of control at 10 µM [50]: 72%
- growth, % of control at 10 µM [51]: 79%
- growth, % of control at 10 µM [52]: 102%
- growth, % of control at 10 µM [53]: 89%
- growth, % of control at 10 µM [54]: 90%
- growth, % of control at 10 µM [55]: 94%
- growth, % of control at 10 µM [56]: 82%
- growth, % of control at 10 µM [57]: 93%
